Reference: article PMC8977229 (Journal of molecular biology, 2022)

Biological target: T1, FraR (Salmonella enterica, UniProt Q8ZLC9)
T1 sequence (Q8ZLC9 1-239): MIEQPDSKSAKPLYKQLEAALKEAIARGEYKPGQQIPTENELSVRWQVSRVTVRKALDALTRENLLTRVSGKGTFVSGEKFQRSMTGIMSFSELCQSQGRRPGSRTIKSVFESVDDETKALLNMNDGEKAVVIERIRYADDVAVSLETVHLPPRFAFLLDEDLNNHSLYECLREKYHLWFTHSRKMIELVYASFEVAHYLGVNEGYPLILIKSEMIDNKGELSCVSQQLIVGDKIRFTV
Test: online buffer exchange native MS titration
Format: binding

Structure (SMILES): O=C(O)C[C@H](NCC(=O)[C@@H](O)[C@H](O)[C@H](O)COP(=O)(O)O)C(=O)O [6-P-F-Asp, 6-phosphofructose-aspartate]
- Kd: 3.8 ± 0.6 µM
